A value given as a limit tells only on which side of the number the result lay.

Experiment [1] concerns the target T1, CCKB receptor (Mus musculus, UniProt P56481).
T1 construct: The cortex was dissected, weighed and homogenised in 40ml ice-cold buffer; tissue Charles River (supplier of the CD1 mice); host or cells: cerebral cortex membranes of male CD1 mice
T1 sequence (P56481 1-453): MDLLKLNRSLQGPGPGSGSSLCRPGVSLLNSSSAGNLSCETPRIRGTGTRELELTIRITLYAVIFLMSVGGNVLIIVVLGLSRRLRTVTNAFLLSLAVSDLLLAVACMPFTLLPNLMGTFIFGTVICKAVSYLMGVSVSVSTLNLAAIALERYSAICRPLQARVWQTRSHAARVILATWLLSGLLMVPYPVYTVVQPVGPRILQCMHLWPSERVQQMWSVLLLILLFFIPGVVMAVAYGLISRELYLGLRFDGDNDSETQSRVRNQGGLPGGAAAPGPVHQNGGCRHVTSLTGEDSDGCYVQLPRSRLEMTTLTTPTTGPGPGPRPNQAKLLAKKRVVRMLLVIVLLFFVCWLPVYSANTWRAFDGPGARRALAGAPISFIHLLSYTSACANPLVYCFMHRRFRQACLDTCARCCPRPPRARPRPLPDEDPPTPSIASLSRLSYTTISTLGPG
Put plainly: CCKB receptor radioligand binding assay in mouse cortical membranes ([125I]-CCK8S). The settings on record: [125I]-CCK8S 200 pM, 150 min at 21±3°; for Ki: read-out: CCKB pKi (converted). The method, then: The compounds of the examples were tested for binding at the CCKB receptor in mouse cortical membranes by means of a radioligand binding assay. The procedure was as follows:
The whole brains from male mice (CD1 22-25 g; Charles River) were removed and placed in ice-cold buffer (pH7.2 @ 21±3°) of the following composition (mM); 10 HEPES, 130 NaCl, 4.7 KCl, 5 MgCl2, 1 EDTA and containing 0.25g.^-1 bacitracin. The cortex was dissected, weighed and homogenised in 40ml ice-cold buffer using a Teflon-in-glass homogeniser. The homogenate was centrifuged at 39,800g for 20 min at 4°, the supernatant discarded and the pellet resuspended by homogenisation in fresh buffer. The homogenate was recentrifuged (39,800 g; 20 min @ 4°) and the final pellet was resuspended in HEPES buffer to give a tissue concentration of 2 mg.ml^-1 (original wet weight).
The membranes ([…]) were incubated for 150 min at 21±3° in a final volume of 0.5 ml with HEPES buffer containing [^125 I]-CCK8S (0.05 ml; 200 pM NEN 2200 Ci.mmol^-1) and competing compound. Total and non-specific binding of [^125 I]-CCK8S were defined using 0.05 ml of buffer and 0.05 ml of […] L-365,260, respectively. The assay was terminated by rapid filtration through pre-soaked Whatman GF/B filters using a Brandell Cell harvester. The filters were washed (3×3 ml) with ice-cold 50 mM Tris-HCl (pH7.4 @ 4° C.) and bound radioactivity determined by counting (1 min.) in a gamma-counter.

Experiment [2] addresses T2, CCKA (Cavia porcellus, UniProt Q63931).
T2 construct: The pancreatata were homogenised in 40 ml ice-cold HEPES buffer using a polytron; from tissue; host or cells: pancreas membranes of male Dunkin Hartley guinea-pigs
T2 sequence (Q63931 1-430): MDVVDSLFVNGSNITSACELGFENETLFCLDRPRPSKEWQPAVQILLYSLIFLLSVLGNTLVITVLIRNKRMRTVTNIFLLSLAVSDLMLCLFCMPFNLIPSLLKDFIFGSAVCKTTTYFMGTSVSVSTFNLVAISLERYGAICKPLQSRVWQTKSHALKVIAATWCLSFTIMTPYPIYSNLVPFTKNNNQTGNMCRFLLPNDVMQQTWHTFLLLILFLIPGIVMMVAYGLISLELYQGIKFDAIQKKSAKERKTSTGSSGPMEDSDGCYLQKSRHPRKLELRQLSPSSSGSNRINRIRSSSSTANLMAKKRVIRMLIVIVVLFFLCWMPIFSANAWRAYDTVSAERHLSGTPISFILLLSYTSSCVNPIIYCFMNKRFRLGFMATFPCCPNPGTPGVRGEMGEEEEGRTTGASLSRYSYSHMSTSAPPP
Put plainly: CCKA radioligand binding assay in guinea-pig pancreas membranes ([125I]-CCK8(S)). To be noted: PD134,308 present, 150 minutes at 21±3°; for Ki: read-out: CCKA pKi (converted). As to the method: The compounds of the examples were also tested in a CCKA as follows:
The pancreatata were removed from male guinea-pigs (200-300 g; Dunkin Hartley) and placed in ice-cold HEPES buffer (pH 7.2 @ 21 ±3). The pancreatata were homogenised in 40 ml ice-cold HEPES buffer using a polytron (Brinkmann, PT10, setting 10) 4×1 second. The homogenate was centrifuged at 39,800 g for 15 min at 4°. The supernatant was discarded and the pellet re-suspended using a Teflon-in-glass homogeniser in 20 volumes of fresh buffer and re-centrifuged as above.
The final pellet was re-suspended using a Teflon-in-glass homogeniser to a tissue concentration of 1 mg.ml^-1 (original wet weight), and filtered through 500 μm pore-size Nytex mesh.
The membranes (400 μl; containing 0.375 μM PD134,308) are incubated for 150 minutes at 21±3° in a final volume of 0.5 ml with HEPES buffer containing [^125 I]-CCK8 (S) (50 μl; […]) and competing compound. Total and non-specific binding of [^125 I]-CCK8 (S) are defined using 50 μl of buffer and 50 μl of 100 nM L-364,718 respectively. The assay is terminated by rapid filtration through pre-soaked Whatman GF/B filters using a Brandell Cell Harvester. The filters were washed (3×3 ml) with ice-cold 50 mM Tris HCl (pH 7.4 at 4°) and bound radioactivity is determined by counting (1 min) in a gamma counter.

As for `O=C(NCC12CC3CC(CC(C3)C1)C2)c1cc2[nH]ccc2cc1C(=O)N[C@@H](Cc1ccccc1)C(=O)Nc1cccc(NS(=O)(=O)C(F)(F)F)c1` [Example 102, 5-(1S-(3-trifluoromethylsulphonylaminophenylaminocarbonyl)-2-phenylethylaminocarbonyl)-6-(1-adamantanemethylaminocarbonyl)-indole], the “CCKB pKi” value in experiment [1] was 7.4. Also, in experiment [2], the “CCKA pKi” value is reported as 5.9.
On to `O=Cc1cc(C=O)cc(NC(=O)[C@H](Cc2ccccc2)NC(=O)c2cc3[nH]cnc3cc2C(=O)NCC23CC4CC(CC(C4)C2)C3)c1` [Example 120, 5-(1S-(3,5-hydrogencarbonylphenylaminocarbonyl)-2-phenylethylaminocarbonyl)-6-(1-adamantanemethylaminocarbonyl)-benzimidazole], for which the Ki in experiment [1] is 0.631 µM; in experiment [2] it was 1 µM.
“1/2-(1-adamantanemethylaminocarbonyl)-naphthoic acid Regioisomer 2 [Example 22]”: the “CCKB pKi” value in experiment [1] is given as 5.9. Besides, the “CCKA pKi” value in experiment [2] is reported as 5.4.
The corresponding values for `NS(=O)(=O)c1cc(NC(=O)[C@H](Cc2ccccc2)NC(=O)c2cc3cc[nH]c3cc2C(=O)NCC23CC4CC(CC(C4)C2)C3)cc(S(N)(=O)=O)c1` [Example 96, 5-(1S-(3,5-di-aminosulphonylphenylaminocarbonyl)-2-phenylethylaminocarbonyl)-6-(1-adamantanemethylaminocarbonyl)-indole] are 6.3 and 5.7.
The corresponding values for “5-(1S-(trans3,4-dimethoxycarbonylpyrrolidinocarbonyl)-2-phenylethylaminocarbonyl)-6-(1-adamantanemethylaminocarbonyl)-indole and regioisomer with substituents at positions 5 and 6 reversed [Example 49]” are 5.6 and 5.6.
For `O=C(NCC12CC3CC(CC(C3)C1)C2)c1cc2cc[nH]c2cc1C(=O)N[C@@H](Cc1ccccc1F)C(=O)Nc1cc(-c2nn[nH]n2)cc(-c2nn[nH]n2)c1` [Example 98, 6-(1S-(3,5-ditetrazolylphenylaminocarbonyl)-2-(2-fluorophenyl)ethylaminocarbonyl)-5-(1-adamantanemethylaminocarbonyl)-indole], the Ki in experiment [1] was 0.00398 µM; in experiment [2], 0.2 µM.
Consider `O=C(NCC12CC3CC(CC(C3)C1)C2)c1cc2[nH]ccc2cc1C(=O)N[C@@H](Cc1ccccc1)C(=O)Nc1cc(NC(=O)C(F)(F)F)cc(NC(=O)C(F)(F)F)c1` [Example 94, 5-(1S-(3,5-di-trifluoromethylcarbonylaminophenylamino-carbonyl)-2-phenylethylaminocarbonyl)-6-(1-adamantanemethylaminocarbonyl)-indole], for which the “CCKB pKi” value in experiment [1] is recorded as 6.7. For the same compound, in experiment [2], the “CCKA pKi” value was 5.0.
Consider `O=C(O)c1cc(NC(=O)[C@@H]2Cc3ccccc3CN2C(=O)c2cc3[nH]cnc3cc2C(=O)NCC23CC4CC(CC(C4)C2)C3)cc(C(=O)O)c1` [Example 129, 5-(3S-(3,5-dicarboxyphenylaminocarbonyl)-1,2,3,4-tetrahydroisoquinolino-2-carbonyl)-6-(1-adamantanemethylaminocarbonyl)-benzimidazole], for which the figures for the Ki in experiment [1] and in experiment [2] were 0.2 µM and 7.94 µM, respectively.
Consider `O=C(NCC12CC3CC(CC(C3)C1)C2)c1cc2[nH]ccc2cc1C(=O)N[C@@H](Cc1ccccc1F)C(=O)Nc1cc(-c2nn[nH]n2)cc(-c2nn[nH]n2)c1` [Example 97, 5-(1S-(3,5-ditetrazolylphenylaminocarbonyl)-2-(2-fluorophenyl)ethylaminocarbonyl)-6-(1-adamantanemethylaminocarbonyl)-indole], for which the Ki in experiment [1] is 0.000794 µM; in experiment [2], 0.501 µM.
Take `O=C(O)c1cc(NC(=O)[C@H](Cc2ccccc2)NC(=O)c2cc3ccn(S(=O)(=O)c4ccccc4)c3cc2C(=O)NCC23CC4CC(CC(C4)C2)C3)cc(C(=O)O)c1` [Example 45, 5-(1S-(3,5-dicarboxyphenylaminocarbonyl)-2-phenylethylaminocarbonyl)-6-(1-adamantanemethylamino-carbonyl)-N-phenylsulphonyl-indole]: the “CCKB pKi” value in experiment [1] came to 7.1. In addition, in experiment [2], the “CCKA pKi” value is 6.1.
In the case of `O=C(NCC12CC3CC(CC(C3)C1)C2)c1cc2nc[nH]c2cc1C(=O)N[C@@H](Cc1ccccc1F)C(=O)Nc1cc(-c2nn[nH]n2)cc(-c2nn[nH]n2)c1` [Example 84, 5-(1S-(3,5-ditetrazolylphenylaminocarbonyl)-2-(2-fluorophenyl)ethylaminocarbonyl)-6-(1-adamantanemethylaminocarbonyl)-benzimidazole], the Ki was 0.00251 µM in experiment [1] and 0.631 µM in experiment [2].
The corresponding values for `CCCCc1nc2cc(C(=O)NCC34CC5CC(CC(C5)C3)C4)c(C(=O)N[C@@H](Cc3ccccc3)C(=O)Nc3cc(C(=O)O)cc(C(=O)O)c3)cc2[nH]1` [Example 114, 5-(1S-(3,5-dicarboxyphenylaminocarbonyl)-2-phenylethylaminocarbonyl)-6-(1-adamantanemethylaminocarbonyl)-2-n-butylbenzimidazole] are 1 µM and 3.16 µM.
The corresponding values for `Cc1nc2cc(C(=O)NCC34CC5CC(CC(C5)C3)C4)c(C(=O)N[C@@H](Cc3ccccc3)C(=O)Nc3cc(C(=O)O)cc(C(=O)O)c3)cc2[nH]1` [Example 111, 5-(1S-(3,5-dicarboxyphenylaminocarbonyl)-2-phenylethylaminocarbonyl)-6-(1-adamantanemethylaminocarbonyl)-2-methylbenzimidazole] are 1.58 µM and more than 10 µM.
Regarding `O=C(NCC12CC3CC(CC(C3)C1)C2)c1cc2nc[nH]c2cc1C(=O)N[C@@H](Cc1ccccc1)C(=O)Nc1ccc(F)cc1` [Example 68, 5-(1S-(4-fluorophenylaminocarbonyl)-2-phenylethylaminocarbonyl)-6-(1-adamantanemethylaminocarbonyl)-benzimidazole], the Ki in experiment [1] and in experiment [2] was 1.26 µM in each case.
In the case of `COC(=O)[C@@H]1CCCN1C(=O)c1cc2ccccc2cc1C(=O)NCC12CC3CC(CC(C3)C1)C2` [Example 6, 2-(2S-methoxycarbonylpyrrolidino-carbonyl)-3-(1-adamantanemethylaminocarbonyl)-naphthalene], the Ki in experiment [1] is 1 µM; in experiment [2], 2.51 µM.

Source of the values: patent US5795907A, “Gastin and CCK receptor ligands” (James Black Foundation Limited, priority 1994, dated 1998).
